Measured values taken from PubChem BioAssay AID248 (DTP/NCI, 2004).
Several values for one entry are separate records, joined by “and”; a condition that tells them apart may be missing. Equal values may be shown once. Inconclusive results and toxic doses are left out.

System: L1210 leukemia ip in BDF1 mice, survival T/C
Assay: NCI In Vivo Anticancer Drug Screen. Data for tumor model L1210 Leukemia (intraperitoneal) in B6D2F1 (BDF1) mice
Details: endpoint: mean survival time, higher = longer survival
Method in brief: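 Tumor was transplanted into mice, which were then dosed with test compound or vehicle alone. Survival was recorded for each group, and the treated figure was expressed relative to the control figure.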

[1] = dose: 100.0 mg/kg/injection, schedule: Q01DX001 (ip), vehicle: carboxymethylcellulose (CMC)
[2] = dose: 100.0 mg/kg/injection, schedule: Q04DX003 (ip), vehicle: saline with Tween-80
[3] = dose: 200.0 mg/kg/injection, schedule: Q04DX003 (ip), vehicle: saline with Tween-80
[4] = dose: 400.0 mg/kg/injection, schedule: Q04DX003 (ip), vehicle: saline with Tween-80
[5] = dose: 100.0 mg/kg/injection, schedule: Q04DX002 (ip), vehicle: Klucel (hydroxypropylcellulose) (HPC)
[6] = dose: 200.0 mg/kg/injection, schedule: Q04DX002 (ip), vehicle: Klucel (hydroxypropylcellulose) (HPC)
[7] = dose: 400.0 mg/kg/injection, schedule: Q04DX002 (ip), vehicle: Klucel (hydroxypropylcellulose) (HPC)
[8] = dose: 25.0 mg/kg/injection, schedule: Q01DX009 (ip), vehicle: saline with Tween-80
[9] = dose: 50.0 mg/kg/injection, schedule: Q01DX009 (ip), vehicle: saline with Tween-80
[10] = dose: 100.0 mg/kg/injection, schedule: Q01DX009 (ip), vehicle: saline with Tween-80
[11] = dose: 100.0 mg/kg/injection, schedule: Q04DX003 (ip), vehicle: Klucel (hydroxypropylcellulose) (HPC)
[12] = dose: 200.0 mg/kg/injection, schedule: Q04DX003 (ip), vehicle: Klucel (hydroxypropylcellulose) (HPC)
[13] = dose: 400.0 mg/kg/injection, schedule: Q04DX003 (ip), vehicle: Klucel (hydroxypropylcellulose) (HPC)
[14] = dose: 100.0 mg/kg/injection, schedule: Q01DX009 (ip), vehicle: saline
[15] = dose: 100.0 mg/kg/injection, schedule: Q04DX003 (ip), vehicle: saline
[16] = dose: 200.0 mg/kg/injection, schedule: Q01DX009 (ip), vehicle: saline
[17] = dose: 200.0 mg/kg/injection, schedule: Q04DX003 (ip), vehicle: saline
[18] = dose: 400.0 mg/kg/injection, schedule: Q04DX003 (ip), vehicle: saline
[19] = dose: 100.0 mg/kg/injection, schedule: Q04DX002 (ip), vehicle: saline with Tween-80
[20] = dose: 200.0 mg/kg/injection, schedule: Q04DX002 (ip), vehicle: saline with Tween-80
[21] = dose: 100.0 mg/kg/injection, schedule: Q01DX009 (ip), vehicle: Klucel (hydroxypropylcellulose) (HPC)
[22] = dose: 200.0 mg/kg/injection, schedule: Q01DX009 (ip), vehicle: Klucel (hydroxypropylcellulose) (HPC)
[23] = dose: 400.0 mg/kg/injection, schedule: Q01DX009 (ip), vehicle: Klucel (hydroxypropylcellulose) (HPC)

C1=C(COC(c2ccccc2)(c2ccccc2)c2ccccc2)CCCC1
T/C [1]: 87 % of control | T/C (dose: 400.0 mg/kg/injection, schedule: Q01DX001 (ip), vehicle: carboxymethylcellulose (CMC)): 87 % of control

CC(CCC(C)(C)O)C1CCC2C3C(O)CC4CCCCC4(C)C3CC(O)C12C (stereo unspecified)
T/C [2]: 89 % of control | T/C [3]: 91 % of control | T/C [4]: 88 % of control

O=C(OCc1ccccc1CN1CCOCC1)c1ccc([N+](=O)[O-])cc1
T/C [5]: 105 % of control | T/C [6]: 98 % of control | T/C [7]: 98 % of control

CC(=O)NC/C(C)=N/Nc1ccc([N+](=O)[O-])cc1[N+](=O)[O-]
T/C [8]: 91 % of control | T/C [9]: 93 % of control | T/C [10]: 102 % of control | T/C [2]: 88 % of control

Cc1ccc(NC(=O)Oc2cc(=O)oc3ccccc23)c([N+](=O)[O-])c1
T/C [11]: 89 % of control | T/C [12]: 94 % of control | T/C [13]: 96 % of control

c1ccc(Cc2ccccc2)cc1
T/C [5]: 101 % of control | T/C [6]: 105 % of control | T/C [7]: 92 % of control

O=C(/C=C/c1cccc([N+](=O)[O-])c1)Nc1cccc(S(=O)(=O)F)c1
T/C [10]: 89 % of control | T/C (dose: 200.0 mg/kg/injection, schedule: Q01DX009 (ip), vehicle: saline with Tween-80): 96 % of control | T/C (dose: 400.0 mg/kg/injection, schedule: Q01DX009 (ip), vehicle: saline with Tween-80): 97 % of control

CC1(C#N)CCc2c(ccc3ccccc23)C1=O (stereo unspecified)
T/C [14]: 95 % of control | T/C [15]: 96 % of control | T/C [16]: 95 % of control | T/C [17]: 94 % of control | T/C [18]: 101 % of control

CN1CCC2(CC1)C(=O)N(c1ccccc1)C(=O)C2c1ccccc1 (stereo unspecified)
T/C (dose: 100.0 mg/kg/injection, schedule: Q01DX001 (ip), vehicle: Klucel (hydroxypropylcellulose) (HPC)): 102 % of control | T/C (dose: 200.0 mg/kg/injection, schedule: Q01DX001 (ip), vehicle: Klucel (hydroxypropylcellulose) (HPC)): 98 % of control

CN(CCCl)Cc1ccc(-c2c3ccccc3cc3c2ccc2ccccc23)cc1
T/C (dose: 25.0 mg/kg/injection, schedule: Q01DX001 (ip), vehicle: carboxymethylcellulose (CMC)): 97 % of control | T/C (dose: 50.0 mg/kg/injection, schedule: Q01DX001 (ip), vehicle: carboxymethylcellulose (CMC)): 89 % of control | T/C [1]: 92 % of control

S=c1nc[nH]c2c1ncn2C1CCCCO1 (stereo unspecified)
T/C (dose: 16.0 mg/kg/injection, schedule: Q01DX Z (ip), vehicle: carboxymethylcellulose (CMC)): 120 % of control | T/C (dose: 21.0 mg/kg/injection, schedule: Q01DX009 (ip), vehicle: saline): 103 % of control | T/C (dose: 36.0 mg/kg/injection, schedule: Q01DX009 (ip), vehicle: saline): 120 % of control | T/C (dose: 88.0 mg/kg/injection, schedule: Q01DX001 (ip), vehicle: saline): 112 % of control | T/C [1]: 124 % of control | T/C [14]: 118 % of control | T/C (dose: 120.0 mg/kg/injection, schedule: Q01DX009 (ip), vehicle: saline): 107 % of control | T/C (dose: 125.0 mg/kg/injection, schedule: Q01DX Z (ip), vehicle: carboxymethylcellulose (CMC)): 94 % of control | T/C (dose: 133.0 mg/kg/injection, schedule: Q01DX001 (ip), vehicle: saline): 122 % of control | T/C (dose: 177.0 mg/kg/injection, schedule: Q01DX001 (ip), vehicle: carboxymethylcellulose (CMC)): 155 % of control | T/C (dose: 200.0 mg/kg/injection, schedule: Q01DX001 (ip), vehicle: saline): 155 % of control | T/C (dose: 267.0 mg/kg/injection, schedule: Q01DX001 (ip), vehicle: carboxymethylcellulose (CMC)): 159 % of control | T/C (dose: 600.0 mg/kg/injection, schedule: Q01DX001 (ip), vehicle: carboxymethylcellulose (CMC)): 150 % of control and 156 % of control | T/C (dose: 900.0 mg/kg/injection, schedule: Q01DX001 (ip), vehicle: carboxymethylcellulose (CMC)): 104 % of control | T/C (dose: 1350.0 mg/kg/injection, schedule: Q01DX001 (ip), vehicle: carboxymethylcellulose (CMC)): 96 % of control

Cl/C(=C/C=C(c1ccccc1)c1ccccc1)c1ccccc1
T/C [19]: 88 % of control | T/C [20]: 88 % of control

O=S1(=O)C2CCC(C2)C1Cl (stereo unspecified)
T/C [8]: 102 % of control | T/C [9]: 101 % of control

CC1CCN(c2ccc([N+](=O)[O-])cc2)CC1
T/C [21]: 100 % of control | T/C [11]: 97 % of control | T/C [22]: 99 % of control | T/C [12]: 95 % of control | T/C [23]: 100 % of control | T/C [13]: 101 % of control

CCOC(=O)C(CCC1=NC(C)(C)CC(C)O1)C(=O)OCC (stereo unspecified)
T/C [2]: 94 % of control | T/C [3]: 101 % of control | T/C [4]: 94 % of control

CN(C)CC(C(=O)c1ccc(Br)cc1)C(Br)c1ccccc1 (stereo unspecified)
T/C (dose: 0.78 mg/kg/injection, schedule: Q01DX009 (ip), vehicle: saline): 94 % of control | T/C (dose: 1.56 mg/kg/injection, schedule: Q01DX009 (ip), vehicle: saline): 92 % of control | T/C (dose: 3.12 mg/kg/injection, schedule: Q01DX009 (ip), vehicle: saline): 97 % of control | T/C (dose: 12.5 mg/kg/injection, schedule: Q04DX003 (ip), vehicle: saline with Tween-80): 95 % of control | T/C (dose: 25.0 mg/kg/injection, schedule: Q04DX003 (ip), vehicle: saline with Tween-80): 91 % of control

COc1ccc(/C=C2\CSC/C(=C/c3ccc(OC)cc3)C2=O)cc1
T/C [14]: 91 % of control | T/C [15]: 95 % of control | T/C [16]: 95 % of control | T/C [17]: 94 % of control | T/C (dose: 400.0 mg/kg/injection, schedule: Q01DX009 (ip), vehicle: saline): 87 % of control | T/C [18]: 97 % of control

CC(=O)Nc1ccc(/C=N\NC(=O)N/N=C/c2ccc(NC(C)=O)cc2)cc1
T/C (dose: 50.0 mg/kg/injection, schedule: Q04DX003 (ip), vehicle: Klucel (hydroxypropylcellulose) (HPC)): 90 % of control | T/C [11]: 91 % of control

CCCCCCCCCCCCCCCCC(C)(O)C#CC(C)(O)CCCCCCCCCCCCCCCC (stereo unspecified)
T/C (dose: 100.0 mg/kg/injection, schedule: Q01DX009 (ip), vehicle: other): 101 % of control | T/C [19]: 101 % of control | T/C (dose: 200.0 mg/kg/injection, schedule: Q01DX009 (ip), vehicle: other): 97 % of control | T/C [20]: 90 % of control | T/C (dose: 400.0 mg/kg/injection, schedule: Q01DX009 (ip), vehicle: other): 101 % of control | T/C (dose: 400.0 mg/kg/injection, schedule: Q04DX002 (ip), vehicle: saline with Tween-80): 97 % of control

O=[N+]([O-])c1cc(Cl)[n+]([O-])c(Cl)c1
T/C (dose: 75.0 mg/kg/injection, schedule: Q01DX001 (ip), vehicle: carboxymethylcellulose (CMC)): 101 % of control

CCCCOC(OCCCC)C(C)=O
T/C [21]: 96 % of control | T/C [11]: 113 % of control | T/C [22]: 96 % of control | T/C [12]: 92 % of control | T/C [23]: 101 % of control | T/C [13]: 102 % of control

O=C1/C(=C/c2ccccc2)SC(=S)N1C1OC(CO)C(O)C(O)C1O (stereo unspecified)
T/C (dose: 12.5 mg/kg/injection, schedule: Q01DX005 (ip), vehicle: other): 98 % of control | T/C (dose: 25.0 mg/kg/injection, schedule: Q01DX005 (ip), vehicle: other): 98 % of control | T/C (dose: 50.0 mg/kg/injection, schedule: Q01DX005 (ip), vehicle: other): 106 % of control | T/C (dose: 100.0 mg/kg/injection, schedule: Q01DX005 (ip), vehicle: other): 101 % of control | T/C (dose: 200.0 mg/kg/injection, schedule: Q01DX005 (ip), vehicle: other): 98 % of control

NNC(=O)c1ccc(NC(=S)Nc2ccccc2)cc1
T/C [21]: 93 % of control | T/C [22]: 93 % of control | T/C [23]: 104 % of control

CC12CCC(O)CC1CCC1C2CCC2(C)C(C(=O)CO)CCC12 (stereo unspecified)
T/C (dose: 100.0 mg/kg/injection, schedule: Q01DX001 (sc), vehicle: steriod suspending solution): 103 % of control | T/C (dose: 200.0 mg/kg/injection, schedule: Q01DX001 (sc), vehicle: steriod suspending solution): 103 % of control | T/C (dose: 400.0 mg/kg/injection, schedule: Q01DX001 (sc), vehicle: steriod suspending solution): 101 % of control
